In patent US12178825B2, “Method and compositions for forming a copper-containing complex and uses thereof” (COLD SPRING HARBOR LABORATORY, priority 2017, dated 2024):
Entries after “also recorded” stand apart in the source; their conditions may differ.

Key:
[1] = tested on: PTP1B1-367, PTP1B1-346 and PTP1B1-321; assay: Phosphatase assay with C-terminal truncation mutants; type: biochemical
Excerpt: All common reagents were obtained from Thermo Fisher Scientific (Waltham, MA) or Sigma-Aldrich (St. Louis, MO). Difluoro-4-methylumbelliferyl phosphate (DiFMUP) was obtained from Invitrogen (cat #D22065). Solid black 384-well plates (cat #3573) for phosphatase assays were from Corning Incorporated (Corning, NY).

[2] = Body weight in diet-induced obesity; type: in vivo, C57Bl6/J mice
Procedure: (§1) All protocols were approved by the Institutional Animal Use and Care Committee of Cold Spring Harbor laboratory. 10 week-old male mice fed chow diet or high-fat diet (D12492) were acclimatized for 10 days under standard conditions before experiments. Mice were injected intraperitoneally (i.p.) once daily with vehicle, 5 mg/kg of DPM-1001 intraperitoneally or orally for 50 days. Mice were euthanized after 6 h of fasting, and serum samples were collected to measure the metabolic parameters and tissue samples were collected for studying changes in signaling.

[3] = Glucose tolerance and insulin tolerance tests; type: in vivo, C57Bl6/J mice; settings: HFD-fed mice, orally or intraperitoneally
Procedure: as §1
Glucose in tail blood was measured using a glucometer (One-Touch Basic; Lifescan, CA). For glucose tolerance tests (GTTs), mice were fasted for 10 hours and then injected 20% D-glucose (2 mg/g body weight) and the blood glucose was monitored immediately before and at 15, 30, 60 and 120 mins following the injection. For insulin tolerance tests (ITTs), 4-h fasted animals were given insulin (0.75 mU/g) and blood glucose was measured immediately before and at 30, 60 and 120 minutes postinjection. Statistical analysis was performed using ANOVA for both GTT and ITT.

[4] = tested on: fibroblasts derived from Wilson's disease patients; assay: Copper-induced toxicity in Wilson's disease patient-derived fibroblasts; type: cell-based
Procedure: HepG2 cells purchased from ATCC were cultured in RPMI media containing 10% FBS, 5% CO2 at 37 C. Control (AG09319) and Wilson's disease patient-derived fibroblasts (GM00032, GM00033, GM05257, GM12158, GM05798 and GM11778) were obtained from Coriell Biorepository and cultured in DMEM, 10% FBS, 5% CO2 at 37° C.
For cell survival assays, 10,000 cells were seeded in a 96 well plate and cultured until fully confluent (90%). To these cells, ATP7B siRNAs or scrambled siRNA (negative control) purchased from Qiagen and Santa Cruz Biotechnology were transfected. Lipofectamine RNAiMAX reagent (Thermofischer) and siRNAs were diluted into a final volume of 100 μl in Opti-MEM (Gibco). The mixture was incubated at room temperature for 30 min, following which 800 μl of Opti-MEM was added to the mixture. The above transfection solution was overlaid onto cells at a final concentration of 5 nM siRNA. Transfection of HepG2 cells with scrambled siRNA served as negative control. Twelve hours after the transfection, complete media was added to each well. Following which, knockdown efficiency was checked (24 hours later) and cells were exposed to varying concentration of copper (0-1 mM) for 12 h and cell viability was determined using the MTT assay as previously described (37). […]

TX mice [5] = assay: Survival and tolerability in the TX mouse model of Wilson's disease; type: in vivo
Procedure: C3He-Atp7b^tx-j were obtained from the Jackson laboratory. All animal experiments were performed according to protocols approved by the Institutional Animal Use and Care Committee of Cold Spring Harbor laboratory. Mice were injected intraperitoneally (i.p.) with vehicle, or administered DPM-1001 intraperitoneally or orally at 5 mg/kg once every third day, for over a year. At the end of the study animals were euthanized and tissue samples were removed for biochemical studies.

TX mice [6] = assay: Liver histology; type: in vivo, mouse
Excerpt: Liver tissues from wild-type and TX mice from untreated and DPM-1001-treated mice were sectioned and stained with H&E or rhodanine. Whole-slide, digitized images of H&E-stained tissue were captured using the Aperio ScanScope XT automated scanning system (Vista, CA). Image J software was used to quantitate rhodanine staining.

[7] = tested on: triple-negative breast cancer (TNBC) cell lines; assay: MTT cell survival, triple-negative breast cancer cell lines; type: cell-based
Procedure: (§2) The MTT assay was used to evaluate cell survival in the absence and presence of different compounds. The thiazolyl blue tetrazolium bromide (MTT) was dissolved in phosphate buffered saline (PBS) at a concentration of 5 mg/ml, filtered, and stored at 4° C. About 10,000 cells were seeded into a 96-well plate and cultured in growth medium containing serum. After 24 hours, cells were treated with the indicated concentrations of DPM-1001 or DPM-1003 (0-100 uM) for 2 hrs. Following which 20 μl MTT was added into each well. An ELISA plate reader (Biotek, Winooski, Vermont, USA) was used to measure the optical density at 490 nm.

non-TNBC cell lines = assay: MTT cell survival, non-TNBC cell lines; type: cell-based
Procedure: as §2

TNBC cells = assay: Annexin V and propidium iodide staining; type: cell-based
Procedure: Cells (1×10^5) were plated in six-well plates in growth medium. The cells were untreated or treated with DPM-1001 (2 μM). Following which, cells were washed with cold PBS twice and resuspended in 0.1 M Hepes/NaOH (pH 7.4), 1.4 M NaCl, 25 mM CaCl2). To the cell suspension 5 μl of fluorescein isothiocynate (FITC)-conjugated annexin V (0.1 mg/ml) and propidium iodide (1 mg/ml) were added and the samples were incubated in dark for 30 minutes at room temperature. The samples were analyzed by flow cytometry (Becton Dickinson LSRII Cell Analyzer).

AGS cells = assay: Cell survival; type: cell-based
Procedure: as §2

KATOIII cells = assay: Cell survival; type: cell-based
Procedure: as §2

MDA-MB-468 cells = assay: Cell survival; type: cell-based
Procedure: as §2

N87 = assay: Cell survival; type: cell-based
Procedure: as §2

NIH 3T3 cells = assay: Cell survival; type: cell-based
Procedure: as §2

SNU116 cells = assay: Cell survival; type: cell-based
Procedure: as §2

SNU1 = assay: Cell survival; type: cell-based
Procedure: as §2

SNU5 cells = assay: Cell survival; type: cell-based
Procedure: as §2

COC(=O)CCC(C)C1CCC2C3C(O)CC4CC(NCCCCNCc5ccccn5)CCC4(C)C3CCC12C (centres unmarked) [DPM-1001]
inhibitory potency for truncation mutants relative to PTP1B1-405 and PTP1B1-394 [1]: lower | weight loss in chow fed mice ([2]; chow diet): without weight loss; also recorded: no weight loss | onset of weight loss ([2]; high fat diet-fed mice): started losing weight within five days of treatment | glucose tolerance ([3]; D-glucose 2 mg/g): lower rise in blood glucose levels; also recorded: improved glucose tolerance | insulin sensitivity (insulin tolerance test) ([3]; insulin 0.75 mU/g): enhanced the effect of insulin to reduce blood glucose levels; also recorded: improved | protection from copper-induced cell death [4]: prevents such cytotoxic effects; also recorded: inhibited copper-induced cell death | longevity of TX mice (in words) (TX mice [5]; 5 mg/kg, every third day): prolongs their life | survival at one year of age (TX mice [5]; TX mice): 90% | survival at one year of age (TX mice [5]; wild-type mice): 100% | toxic side-effects of prolonged treatment (TX mice [5]; wild-type or TX mice): did not have overt toxic side-effects | liver morphology (TX mice [6]; TX mice): prevents the enlarged hepatocytes with irregular shape and arrangement large cytoplasmic lipid droplets in liver; also recorded: appeared similar to those from wild-type mice with normal hepatocyte size, shape and arrangement | liver morphology (TX mice [6]; wild-type mice): no obvious abnormalities were detected | survival of triple-negative breast cancer cells [7]: inhibited survival; also recorded: potently inhibits survival | survival of non-TNBC cell lines, DPM-1001 versus DPM-1003 (non-TNBC cell lines): did not differ from each other | mechanism of reduced cell survival (TNBC cells): due to promoting death of these cells | survival of AGS cells (AGS cells): inhibited survival; also recorded: inhibitory effect | survival of KATOIII cells (KATOIII cells): inhibited survival; also recorded: inhibitory effect | survival of MDA-MB-468 cells (MDA-MB-468 cells): inhibitory effect | survival of N87 cells (N87): inhibited survival; also recorded: inhibitory effect | survival of NIH 3T3 cells (NIH 3T3 cells): no effect on survival | survival of SNU116 cells (SNU116 cells): inhibited survival; also recorded: inhibitory effect | survival of SNU1 cells (SNU1): inhibited survival | survival of SNU5 cells (SNU5 cells): inhibited survival; also recorded: inhibitory effect
